The values that follow come from patent publication US20210238197A1, “NOVEL OXOQUINOLIZINE COMPOUNDS FOR THE TREATMENT AND PROPHYLAXIS OF BACTERIAL INFECTION” (Hoffmann-La Roche Inc., priority 2018, published 2021).

Converted amounts (≈) assume the structure as drawn. Read-outs that look alike come from different tables or passages of the source. Where only a bound is given, the exact number is not on record here.

Series [1] can be described thus: Cytotoxicity assay (HepG2, CellTiter-Blue). The series is classed as cell-based. As to conditions: human; HepG2 cells, 3 days treatment; >100 = detection limit. The procedure: The cytotoxicity of compounds of present invention was assessed by HepG2 assay. HepG2 cells (ATCC RB-8065™) were seeded into 96-well plates (1.2×10^4 cells per well) and treated with compounds for 3 days, cell viability was measured at day 3 post compound treatment using the CellTiter-Blue® Cell Viability Assay (Promega, Cat. No. G8082). […], of Cell titer blue buffer were added to each well of the cells, which were incubated for 3 hours at 37° C., and the fluorescence value was measured by a plate reader (Molecular Device SpectraMax M2). The CC50 value of each compound is plotted with GraphPad Prism using four parameter logistic equation.

Series [2] concerns multiple species and strains. Put plainly: microbe, parasite or virus in culture. Details: MIC S9 / MIC S7 / MIC S11 / MIC S8 / MIC S10: unit not given beside the values. The following applies: for MIC S9: E. coli ATCC 35218. The method, then:
The MIC of antibacterial compounds against multiple species and strains was determined using the broth microdilution method according to M07-A10 Clinical and Laboratory Standards Institute (CLSI) guidelines (CLSI (2015) Methods for dilution antimicrobial susceptibility tests for bacteria that grow aerobically; Approved Standard, Tenth Edition. CLSI Document M7-A10 (ISBN 1-56238-987-4). Wayne, Pa.: Clinical and Laboratory Standards Institute, 19087, USA.). In short, bacterial strain preparation was performed on D1 and D2. […] 5-10 well-isolated colonies of similar morphology were selected and re-streaked onto fresh agar plates using sterile loops and incubated for 20-24 hr at 35±2° C. Bacterial strains were subcultured two times to ensure fresh inoculums for MIC screening. […] Alternatively, 1-2 colonies were transferred into 500 μL of saline and OD600 was adjusted to ˜0.1 using an OD meter. Bacterial inoculum was diluted by 1:280 for Gram-positive strains and 1:400 for Gram-negative strains into corresponding medium broth (CAMHB, CAMHB+3% lysed horse blood, HTM) (e.g. 35.6 μL of inoculum into 10 mL of CAMHB or 25 μL of inoculum into 10 mL of CAMHB). For compound plate, the compound stock solutions were prepared in 100% DMSO on the day of MIC screening and used immediately. Compound stock concentration=[(highest testing concentration)×100 μL/2 μL] (e.g. if the required highest testing concentration is 64 μg/mL in assay plates, stock concentration=64 μg/mL×100 μL/2 μL=3.2 mg/mL). […] 1 μL of each well was transferred in a new MTP, which served as the test plate by subsequent inoculation. The bacterial suspension prepared above is dispensed at 98 μL/well within 15 minutes after preparation. Negative controls (lack of bacterial cells) and growth control wells (lack of compound) were included in all plates. MTPs were incubated for 18-24 hours at 35±2° C. in ambient air. The MIC was recorded and CFUs were calculated on Day 4. The assay plate was placed on the top of MIC reader, and the magnification mirror was adjusted to read each wells, recording growth status as raw data. Photo images of each assay plates were recorded using Q Count 530 (Spiral Biotech). The MIC value of each compound, expressed as μg/mL, was determined as the lowest concentration required for complete growth inhibition (no visible growth).

The subject of series [3] is S. aureus (ATCC29213). Put plainly: 50% growth inhibitory concentration (IC50) determination assay, S. aureus. The series is classed as cell-based. As to conditions: Staphylococcus aureus, ATCC29213; Iso-Sensitest broth, growth by OD 600 nm over 16 h; <0.098 = detection limit. The method, then:
(§1) The in vitro antimicrobial activity of the compounds against S. aureus (ATCC29213), K. pneumoniae (ATCC10031), and A. baumannii (ATCC17978), was determined according to the following procedure: The assay used a 10-points Iso-Sensitest broth medium to measure quantitatively the in vitro activity of the compounds against S. aureus ATCC29213, K. pneumoniae ATCC 10031, and A. baumannii ATCC17978. Stock compounds in DMSO were serially two-fold diluted (range from 50 to 0.097 μM final concentration) in 384 wells microtiter plates and inoculated with 49 μL the bacterial suspension in Iso-Sensitest broth medium to have a final cell concentration of ˜5×10^5 CFU/mL in a final volume/well of 50 μL/well. Microtiter plates were incubated at 35±2° C. Bacterial cell growth was determined with the measurement of optical density at λ=600 nm each 20 minutes over a time course of 16 h.

Series [4] deals with K. pneumoniae (ATCC10031). Kind of series: 50% growth inhibitory concentration (IC50) determination assay, K. pneumoniae. As to conditions: Klebsiella pneumoniae, ATCC10031; Iso-Sensitest broth, growth by OD 600 nm over 16 h; <0.098 = detection limit. It counts as cell-based. The procedure: as §1
The test system of series [5] is A. baumannii (ATCC17978). Put plainly: 50% growth inhibitory concentration (IC50) determination assay, A. baumannii. The following applies: Acinetobacter baumannii, ATCC17978; Iso-Sensitest broth, growth by OD 600 nm over 16 h; <0.098 = detection limit. The series is classed as cell-based. The method, then: as §1
Setting [6] is: Acinetobacter baumannii, ATCC19606, read-out: MIC S1, A. baumannii ATCC 19606.
Setting [7] is: Acinetobacter baumannii, ATCC51432, read-out: MIC S2, A. baumannii ATCC 51432.
Setting [8] is: Acinetobacter baumannii, ATCCBAA747, read-out: MIC S3, A. baumannii ATCC BAA-747.
Where [9] appears, read: Escherichia coli, ATCC25922, read-out: MIC S11, E. coli ATCC 25922.
[10] abbreviates: Escherichia coli, ATCCBAA2340, read-out: MIC S10, E. coli ATCC BAA-2340.
The mark [11] stands for this setting: Klebsiella pneumoniae, ATCC10031, read-out: MIC S4, K. pneumoniae ATCC 10031.
The mark [12] stands for this setting: Klebsiella pneumoniae, ATCC700603, read-out: MIC S5, K. pneumoniae ATCC 700603.
[13] abbreviates: Klebsiella pneumoniae, ATCCBAA2146, read-out: MIC S6, K. pneumoniae ATCC BAA-2146.
Where [14] appears, read: Pseudomonas aeruginosa, ATCC27853, read-out: MIC S7, P. aeruginosa ATCC 27853.
The mark [15] stands for this setting: Pseudomonas aeruginosa, ATCCBAA2113, read-out: MIC S8, P. aeruginosa ATCC BAA-2113.

What is called CC50 is the concentration that lowers cell viability or growth by half. One may read the IC50 as the concentration at which inhibition is half-maximal.

As for `CNc1cc(F)c(Cl)c2c1[nH]c1ncc(-c3ccc4ccc(C(=O)O)c(=O)n4c3)c(N3CC[C@@]4(C[C@@H]4N)C3)c12` (single isomer, unassigned) [Example 5.01A], the CC50 at 3 days in series [1] was greater than 100000 nM. Besides, the MIC in series [2] (setting [6]) was found to be 1.03 µg/mL (≈ 1.88 µM); in series [2] (setting [7]) it was 1.03 µg/mL (≈ 1.88 µM); in series [2] (setting [8]) it was 1.03 µg/mL (≈ 1.88 µM); in series [2] (setting [9]) it was 0.194 µg/mL (≈ 0.355 µM); in series [2] (setting [10]), 0.516 µg/mL (≈ 0.943 µM); in series [2] (setting [11]) it was 0.032 µg/mL (≈ 0.0585 µM). The MIC came out at 2.07 µg/mL (≈ 3.78 µM) in series [2] (setting [12]), 4.13 µg/mL (≈ 7.55 µM) in series [2] (setting [13]), 2.07 µg/mL (≈ 3.78 µM) in series [2] (setting [14]) and 2.07 µg/mL (≈ 3.78 µM) in series [2] (setting [15]). The “MIC S9” value in series [2] is reported as 0.516.
With `CNc1cc(F)c(Cl)c2c1[nH]c1ncc(-c3ccc4ccc(C(=O)O)c(=O)n4c3)c(N3CC[C@]4(C[C@H]4N)C3)c12` [Example 5.01B, 7-(4-((1R,3S)-1-amino-5-azaspiro[2.4]heptan-5-yl)-5-chloro-6-fluoro-8-(methylamino)-9H-pyrido[2,3-b]indol-3-yl)-4-oxo-4H-quinolizine-3-carboxylic acid], the CC50 at 3 days in series [1] was greater than 100000 nM. In addition, the MIC in series [2] (setting [6]) was determined as 0.516 µg/mL (≈ 0.943 µM); in series [2] (setting [7]), 1.03 µg/mL (≈ 1.88 µM); in series [2] (setting [8]), 1.03 µg/mL (≈ 1.88 µM); in series [2] (setting [9]), 0.097 µg/mL (≈ 0.177 µM); in series [2] (setting [10]), 0.516 µg/mL (≈ 0.943 µM); in series [2] (setting [11]), 0.032 µg/mL (≈ 0.0585 µM). In addition, the MIC in series [2] (setting [12]) is 4.13 µg/mL (≈ 7.55 µM); in series [2] (setting [13]), 4.13 µg/mL (≈ 7.55 µM); in series [2] (setting [14]), 2.07 µg/mL (≈ 3.78 µM); in series [2] (setting [15]), 2.07 µg/mL (≈ 3.78 µM). In addition, in series [2], the “MIC S9” value is on record as 0.516.
As for `CNc1cc(F)c(F)c2c1[nH]c1ncc(-c3ccc4ccc(C(=O)O)c(=O)n4c3)c(N3CC[C@@]4(C[C@H]4N)C3)c12` [Example 4.01B, 7-(4-((1R,3R)-1-amino-5-azaspiro[2.4]heptan-5-yl)-5,6-difluoro-8-(methylamino)-9H-pyrido[2,3-b]indol-3-yl)-4-oxo-4H-quinolizine-3-carboxylic acid], the IC50 in series [3], in series [4] and in series [5] was less than 98 nM in each case. Besides, the CC50 at 3 days in series [1] was greater than 100000 nM.
For the compound `CNc1cc(F)c(C#N)c2c1[nH]c1ncc(-c3ccc4ccc(C(=O)O)c(=O)n4c3)c(N3CC4C(N(C)C)CO[C@@H]4C3)c12` (stereo partly drawn) [Example 1.15, 7-[5-cyano-4-[cis-3-(dimethylamino)-2,3,3a,4,6,6a-hexahydrofuro[2,3-c]pyrrol-5-yl]-6-fluoro-8-(methylamino)-9H-pyrido[2,3-b]indol-3-yl]-4-oxo-quinolizine-3-carboxylic acid], the values for the IC50 in series [3], in series [4] and in series [5] were 103 nM, less than 98 nM and less than 98 nM, respectively. The compound further gave a CC50 at 3 days in series [1] of 75400 nM.
In series [1], `CNc1cc(F)c(F)c2c1[nH]c1ncc(-c3ccc4ccc(C(=O)O)c(=O)n4c3)c(N3CC4[C@H](CC[C@H]4N(C)C)C3)c12` (stereo partly drawn) [Example 1.05, 7-[4-[cis-(4R)-4-(dimethylamino)-3,3a,4,5,6,6a-hexahydro-1H-cyclopenta[c]pyrrol-2-yl]-5,6-difluoro-8-(methylamino)-9H-pyrido[2,3-b]indol-3-yl]-4-oxo-quinolizine-3-carboxylic acid] came in with a CC50 at 3 days of 15500 nM.
For `CNc1cc(F)cc2c1[nH]c1ncc(-c3ccc4ccc(C(=O)O)c(=O)n4c3)c(N3CCOCC3)c12` [Example 1.02, 7-(6-fluoro-8-(methylamino)-4-morpholino-9H-pyrido[2,3-b]indol-3-yl)-4-oxo-4H-quinolizine-3-carboxylic acid], the IC50 in series [3] is 159 nM; in series [4], less than 98 nM; in series [5], less than 98 nM. In series [1], this compound yielded a CC50 at 3 days of 24100 nM.
On to `CNc1cc(F)c(Cl)c2c1[nH]c1ncc(-c3ccc4ccc(C(=O)O)c(=O)n4c3)c(N3C[C@H]4CC[C@@H](N(C)C)[C@H]4C3)c12` [Example 1.08, 7-[4-[cis-(4R)-4-(dimethylamino)-3,3a,4,5,6,6a-hexahydro-1H-cyclopenta[c]pyrrol-2-yl]-5-chloro-6-fluoro-8-(methylamino)-9H-pyrido[2,3-b]indol-3-yl]-4-oxo-quinolizine-3-carboxylic acid], for which the half-maximal inhibitory concentration (IC50) in series [3], in series [4] and in series [5] was less than 98 nM in each case. In addition, the MIC turned out to be 0.274 µg/mL (≈ 0.465 µM) in series [2] (setting [6]); 0.274 µg/mL (≈ 0.465 µM) in series [2] (setting [7]); 0.548 µg/mL (≈ 0.93 µM) in series [2] (setting [8]); 0.206 µg/mL (≈ 0.35 µM) in series [2] (setting [9]); 0.548 µg/mL (≈ 0.93 µM) in series [2] (setting [10]); 0.069 µg/mL (≈ 0.117 µM) in series [2] (setting [11]). The MIC in series [2] (setting [12]) stood at 4.39 µg/mL (≈ 7.46 µM); in series [2] (setting [13]), 2.2 µg/mL (≈ 3.73 µM); in series [2] (setting [14]), 2.2 µg/mL (≈ 3.73 µM); in series [2] (setting [15]), 4.39 µg/mL (≈ 7.46 µM). Further, the “MIC S9” value in series [2] was 0.548.
For the compound `CNc1cc(F)c(F)c2c1[nH]c1ncc(-c3ccc4ccc(C(=O)O)c(=O)n4c3)c(N3C[C@H]4CCN(C)[C@H]4C3)c12` [Example 3.03A, 7-[4-[(3aR,6aR)-1-methyl-2,3,3a,4,6,6a-hexahydropyrrolo[3,4-b]pyrrol-5-yl]-5,6-difluoro-8-(methylamino)-9H-pyrido[2,3-b]indol-3-yl]-4-oxo-quinolizine-3-carboxylic acid], the IC50 in series [3], in series [4] and in series [5] was less than 98 nM throughout. Further, the MIC is 0.106 µg/mL (≈ 0.195 µM) in series [2] (setting [6]); 0.212 µg/mL (≈ 0.389 µM) in series [2] (setting [7]); 0.212 µg/mL (≈ 0.389 µM) in series [2] (setting [8]); 0.08 µg/mL (≈ 0.147 µM) in series [2] (setting [9]); 0.425 µg/mL (≈ 0.78 µM) in series [2] (setting [10]); 0.027 µg/mL (≈ 0.0496 µM) in series [2] (setting [11]). In addition, the MIC in series [2] (setting [12]) is 3.4 µg/mL (≈ 6.25 µM); in series [2] (setting [13]), 1.7 µg/mL (≈ 3.13 µM); in series [2] (setting [14]) it was 0.85 µg/mL (≈ 1.56 µM); in series [2] (setting [15]), 3.4 µg/mL (≈ 6.25 µM). In addition, the “MIC S9” value in series [2] is listed as 0.425.
